Measurements taken from US8883438B2, “Method for diagnosing cell proliferation disorders having a neoactive mutation at residue 97 of isocitrate dehydrogenase 1” (Agios Pharmaceuticals, Inc., priority 2009, dated 2014).

How the values were obtained:
IDH1 G97D = molecular target: T1, IDH1 G97D (Homo sapiens, UniProt O75874, G97D); assay: IDH1 G97D inhibition assay (NADPH/aKG, diaphorase/resazurin fluorescence readout); type: biochemical; conditions: 50 minutes at room temperature
T1 construct: Oligo nucleotides were designed to PCR out the coding region of IDH1 with NdeI at the 5′ end and XhoI at the 3′; Ser-Leu-Glu junction (stop codon changed to Ser, then Leu-Glu); made in house; host or cells: E. coli Rosetta
Description: Assays were conducted in a standard 384-well plate in a reaction volume of 76 uL assay buffer (150 mM NaCl, 10 mM MgCl2, 20 mM Tris pH 7.5, 0.05% bovine serum albumin, 2 mM beta-mercaptoethanol) as follows: To 25 uL of substrate mix (4 uM NADPH, 1 mM aKG), 1 uL of test compound in DMSO was added. The plate was centrifuged briefly, and then 25 ul of enzyme mix was added (0.1 ug/mL ICDH1 G97D) followed by a brief centrifugation and shake at 100 RPM. The reaction was incubated for 50 minutes at room temperature, then 25 ul of detection mix (30 uM resazurin, 36 ug/ml diaphorase) was added, and the mixture further incubated for 5 minutes at room temperature. The activity readout as a result of the conversion of resazurin to resorufin was detected by fluorescent spectroscopy at excitation 544 nm and emission 590 nm (c/o 590 nm).

glioblastoma multiforme = conditions: persons newly diagnosed with glioblastoma multiforme; cited from earlier work

T1 sequence (O75874 whole entry G97D): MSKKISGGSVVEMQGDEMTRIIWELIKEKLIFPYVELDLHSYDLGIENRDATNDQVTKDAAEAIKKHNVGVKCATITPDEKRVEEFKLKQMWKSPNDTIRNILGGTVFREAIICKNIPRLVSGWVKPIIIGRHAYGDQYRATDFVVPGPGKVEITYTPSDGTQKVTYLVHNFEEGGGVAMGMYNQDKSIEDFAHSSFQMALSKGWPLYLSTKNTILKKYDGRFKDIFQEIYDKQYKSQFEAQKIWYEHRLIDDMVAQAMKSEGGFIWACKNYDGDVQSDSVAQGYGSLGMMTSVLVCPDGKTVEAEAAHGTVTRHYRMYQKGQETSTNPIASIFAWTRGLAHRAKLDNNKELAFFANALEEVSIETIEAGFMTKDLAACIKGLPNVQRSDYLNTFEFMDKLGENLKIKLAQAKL

Row | IC50 (IDH1 G97D) [µM] | SMILES | tolerability (glioblastoma multiforme)
1 | 1 to 5 | O=C1/C(=C/c2ccc(F)cc2)C(CSc2ccc(Cl)cc2)=NN1c1nc2ccccc2s1 | 
2 | 1 to 5 | N#C/C(=C\c1ccc(-c2cc([N+](=O)[O-])ccc2O)o1)c1nc2ccccc2[nH]1 | 
3 | 1 to 5 | CCCCC1=NN2C(=N)/C(=C/c3ccc(-c4ccc([NH2+][O-])cc4Cl)o3)C(=O)N=C2S1 | 
4 | 5 to 10 | O=C1NC(=S)S/C1=C\c1ccc(-c2ccc(N3CCOCC3)c([N+](=O)[O-])c2)o1 | 
5 |  | Cn1nnc2c(C(N)=O)ncn2c1=O [temozolomide, Temozolomide] | well tolerated
